In patent publication US8815864B2, “Indanyloxydihydrobenzofuranylacetic acids” (Boehringer Ingelheim International GmbH, priority 2012, dated 2014):

Each compound was assayed against human GPR40 receptor (Homo sapiens, UniProt O14842) (assay: IP1 accumulation measurements using the IPOne assay system). Conditions: 1321N1 cells stably expressing human GPR40; stimulation 1 h at 37° C.
Sequence of human GPR40 receptor (O14842 whole entry): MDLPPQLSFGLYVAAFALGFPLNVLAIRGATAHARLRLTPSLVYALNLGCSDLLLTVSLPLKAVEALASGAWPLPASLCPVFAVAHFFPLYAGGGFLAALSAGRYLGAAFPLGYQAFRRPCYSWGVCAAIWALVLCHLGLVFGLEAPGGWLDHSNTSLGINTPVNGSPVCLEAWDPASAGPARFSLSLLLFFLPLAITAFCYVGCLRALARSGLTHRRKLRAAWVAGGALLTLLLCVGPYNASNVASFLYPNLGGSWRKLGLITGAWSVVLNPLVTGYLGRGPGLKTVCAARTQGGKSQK
Format: cell-based
Method: IP1 accumulation measurements using the IPOne assay system—1321N1 cells stably expressing human GPR40 receptor (Euroscreen, Belgium) are seeded 24 h before the assay in white 384-well plates in culture medium containing 10% FCS, 1% Na-Pyruvate and 400 μg/mL G418. IP1 is assayed according to the manufacturer's description (Cisbio Bioassays, France). In brief, the assay is started by substitution of the culture medium by stimulation buffer (Hepes 10 mM, CaCl2 1 mM, MgCl2 0.5 mM, KCl 4.2 mM, NaCl 146 mM, glucose 5.5 mM and LiCl 50 mM, pH 7.4). Cells are stimulated for 1 h at 37° C., 5% CO2 by addition of the compounds that are diluted in stimulation buffer containing LiCl. Assays are stopped by adding HTRF-conjugates (IP1-d2 and Anti-IP1 cryptate Tb) and lysis buffer, provided by the manufacturer. After an incubation time of 1 h at room temperature plates are measured using an EnVision™, Perkin Elmer. The obtained fluorescence ratios at 665/615 […] are then used to calculate the pEC50 values using Assay Explorer 3.3 Software (Accelrys, Inc.) by interpolation using an IP1 reference curve and subsequent sigmoidal curve fitting allowing for a variable hill slope.
In the case of `O=C(O)C[C@@H]1COc2cc(O[C@@H]3CCc4c(Oc5ccccn5)ccc(F)c43)ccc21` [Example 7, {(S)-6-[(R)-7-Fluoro-4-pyrid-2-yloxy-indan-1-yloxy]-2,3-dihydro-benzofuran-3-yl}-acetic acid], the EC50 is reported as 32 nM.
Compound `Cc1noc2ccc(Oc3ccc(F)c4c3CC[C@H]4Oc3ccc4c(c3)OC[C@H]4CC(=O)O)cc12` [Example 60, {(S)-6-[(R)-7-Fluoro-4-(3-methyl-benzo[d]isoxazol-5-yloxy)-indan-1-yloxy]-2,3-dihydro-benzofuran-3-yl}-acetic acid] has an EC50 of 3 nM.
`Cc1ccc(Oc2ccc(F)c3c2CC[C@H]3Oc2ccc3c(c2)OC[C@H]3CC(=O)O)c(C#N)c1` [Example 23, {(S)-6-[(R)-4-(2-Cyano-4-methyl-phenoxy)-7-fluoro-indan-1-yloxy]-2,3-dihydro-benzofuran-3-yl}-acetic acid] gave an EC50 of 7 nM.
In the case of `Cc1cccc(C)c1Oc1ccc(F)c2c1CC[C@H]2Oc1ccc2c(c1)OC[C@H]2CC(=O)O` [Example 5, {(S)-6-[(R)-7-Fluoro-4-(2,6-dimethyl-phenoxy)-indan-1-yloxy]-2,3-dihydro-benzofuran-3-yl}-acetic acid], the EC50 is reported as 70 nM.
For `O=C(O)C[C@@H]1COc2cc(O[C@@H]3CCc4c(Oc5cccnc5)ccc(F)c43)ccc21` [Example 6, {(S)-6-[(R)-7-Fluoro-4-pyrid-3-yloxy-indan-1-yloxy]-2,3-dihydro-benzofuran-3-yl}-acetic acid], the EC50 was 33 nM.
`O=C(O)C[C@@H]1COc2cc(O[C@@H]3CCc4c(Oc5nc6ccccc6s5)ccc(F)c43)ccc21` [Example 12, {(S)-6-[(R)-4-Benzothiazol-2-yloxy-7-fluoro-indan-1-yloxy]-2,3-dihydro-benzofuran-3-yl}-acetic acid] gave an EC50 of 12 nM.
`O=C(O)C[C@@H]1COc2cc(O[C@@H]3CCc4c(Oc5ccnc(C(F)(F)F)c5)ccc(F)c43)ccc21` [Example 32, {(S)-6-[(R)-7-Fluoro-4-(2-trifluoromethyl-pyrid-4-yloxy)-indan-1-yloxy]-2,3-dihydro-benzofuran-3}-acetic acid] gave an EC50 of 6 nM.
`Cn1c(Oc2ccc(F)c3c2CC[C@H]3Oc2ccc3c(c2)OC[C@H]3CC(=O)O)nc2ccccc21` [Example 13, {(S)-6-[(R)-7-Fluoro-4-(1-methyl-1H-benzoimidazol-2-yloxy)-indan-1-yloxy]-2,3-dihydro-benzofuran-3-yl}-acetic acid] was tested, and the EC50 was 216 nM.
For `N#Cc1cccc(Oc2ccc(F)c3c2CC[C@H]3Oc2ccc3c(c2)OC[C@H]3CC(=O)O)c1` [Example 27, {(S)-6-[(R)-4-(3-Cyano-phenoxy)-7-fluoro-indan-1-yloxy]-2,3-dihydro-benzofuran-3-yl}-acetic acid], the EC50 was 7 nM.
In the case of `COc1c(F)cc(Oc2ccc(F)c3c2CC[C@H]3Oc2ccc3c(c2)OC[C@H]3CC(=O)O)cc1F` [Example 57, {(S)-6-[(R)-4-(3,5-Difluoro-4-methoxy-phenoxy)-7-fluoro-indan-1-yloxy]-2,3-dihydro-benzofuran-3-yl}-acetic acid], the EC50 is reported as 7 nM.
In the case of `Cn1cnc2cc(Oc3ccc(F)c4c3CC[C@H]4Oc3ccc4c(c3)OC[C@H]4CC(=O)O)ccc21` [Example 42, {(S)-6-[(R)-7-Fluoro-4-(1-methyl-1H-benzoimidazol-5-yloxy)-indan-1-yloxy]-2,3-dihydro-benzofuran-3-yl}-acetic acid], the EC50 is reported as 891 nM.
`O=C(O)C[C@@H]1COc2cc(O[C@@H]3CCc4c(Oc5ccc6ccccc6n5)ccc(F)c43)ccc21` [Example 40, {(S)-6-[(R)-7-Fluoro-4-(Quinolin-2-yloxy)-indan-1-yloxy]-2,3-dihydro-benzofuran-3-yl}-acetic acid] gave an EC50 of 22 nM.
With `COc1ccc(Oc2ccc(F)c3c2CC[C@H]3Oc2ccc3c(c2)OC[C@H]3CC(=O)O)cc1` [Example 3, {(S)-6-[(R)-7-Fluoro-4-(4-methoxy-phenoxy)-indan-1-yloxy]-2,3-dihydro-benzofuran-3-yl}-acetic acid] the EC50 was 3 nM.
`O=C(O)C[C@@H]1COc2cc(O[C@@H]3CCc4c(Oc5nc6ccccc6o5)ccc(F)c43)ccc21` [Example 19, {(S)-6-[(R)-4-Benzoxazol-2-yloxy-7-fluoro-indan-1-yloxy]-2,3-dihydro-benzofuran-3-yl}-acetic acid] gave an EC50 of 13 nM.
Work on `COc1ccc(Oc2ccc(F)c3c2CC[C@H]3Oc2ccc3c(c2)OC[C@H]3CC(=O)O)c(F)c1` [Example 56, {(S)-6-[(R)-4-(2-Fluoro-4-methoxy-phenoxy)-7-fluoro-indan-1-yloxy]-2,3-dihydro-benzofuran-3-yl}-acetic acid] yielded an EC50 of 6 nM.
In the case of `N#Cc1ccc(Oc2ccc(F)c3c2CC[C@H]3Oc2ccc3c(c2)OC[C@H]3CC(=O)O)cc1` [Example 8, {(S)-6-[(R)-4-(4-Cyano-phenoxy)-7-fluoro-indan-1-yloxy]-2,3-dihydro-benzofuran-3-yl}-acetic acid], the EC50 is reported as 4 nM.
